Assay results as given in PMC4724238 (Biochemical and biophysical research communications, 2015).

What was measured:
Assay in all cases: reduction to DABS-Met, […] min
Type in all cases: biochemical
Settings in all cases: no activator
[1] = target: T1, eMsrB (Escherichia coli, UniProt P0A746)
T1 sequence (P0A746 2-137): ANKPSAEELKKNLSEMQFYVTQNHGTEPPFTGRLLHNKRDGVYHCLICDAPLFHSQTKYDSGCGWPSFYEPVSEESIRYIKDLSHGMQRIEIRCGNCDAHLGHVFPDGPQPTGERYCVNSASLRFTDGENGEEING

[2] = target: T2, hMsrB3 (Homo sapiens, UniProt Q8IXL7)
T2 sequence (Q8IXL7 1-192 limits assumed): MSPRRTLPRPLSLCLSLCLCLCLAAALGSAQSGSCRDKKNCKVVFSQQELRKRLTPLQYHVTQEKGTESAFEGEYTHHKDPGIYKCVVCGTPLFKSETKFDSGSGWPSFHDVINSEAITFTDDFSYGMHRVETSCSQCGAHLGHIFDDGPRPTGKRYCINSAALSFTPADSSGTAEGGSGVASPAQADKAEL

[3] = target: hMsrB2 (Homo sapiens, UniProt Q9Y3D2)
[4] = target: T3, hMsrA (Homo sapiens, UniProt Q9UJ68)
T3 sequence (Q9UJ68 23-235): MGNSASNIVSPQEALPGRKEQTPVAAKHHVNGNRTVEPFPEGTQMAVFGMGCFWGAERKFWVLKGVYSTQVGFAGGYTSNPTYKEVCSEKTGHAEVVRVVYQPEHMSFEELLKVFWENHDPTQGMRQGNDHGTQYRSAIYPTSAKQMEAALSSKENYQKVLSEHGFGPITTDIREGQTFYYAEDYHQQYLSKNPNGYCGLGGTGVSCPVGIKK

[5] = target: T4, eMsrA (Escherichia coli, UniProt P0A744)
T4 sequence (P0A744 2-212): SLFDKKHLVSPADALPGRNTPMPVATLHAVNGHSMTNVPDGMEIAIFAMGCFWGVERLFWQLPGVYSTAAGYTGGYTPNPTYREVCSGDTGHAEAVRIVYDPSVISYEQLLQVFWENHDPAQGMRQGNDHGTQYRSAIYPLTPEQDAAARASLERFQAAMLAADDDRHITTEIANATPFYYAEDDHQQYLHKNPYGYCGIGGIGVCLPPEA

[6] = target: T5, bMsrA (Bos taurus, UniProt P54149)
T5 sequence (P54149 1-233 limits assumed): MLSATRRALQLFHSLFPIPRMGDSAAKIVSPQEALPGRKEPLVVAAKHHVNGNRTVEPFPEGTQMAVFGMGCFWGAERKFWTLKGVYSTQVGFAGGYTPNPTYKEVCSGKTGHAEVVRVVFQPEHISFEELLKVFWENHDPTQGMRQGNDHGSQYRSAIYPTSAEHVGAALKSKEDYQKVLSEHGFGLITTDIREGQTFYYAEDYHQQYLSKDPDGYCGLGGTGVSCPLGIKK

[7] = target: T6, hMsrA (myristoylated) (Homo sapiens, UniProt Q9UJ68)
T6 sequence (Q9UJ68 23-235): T3 sequence (Q9UJ68 23-235)

hMsrB2, sequence (Q9Y3D2 whole entry): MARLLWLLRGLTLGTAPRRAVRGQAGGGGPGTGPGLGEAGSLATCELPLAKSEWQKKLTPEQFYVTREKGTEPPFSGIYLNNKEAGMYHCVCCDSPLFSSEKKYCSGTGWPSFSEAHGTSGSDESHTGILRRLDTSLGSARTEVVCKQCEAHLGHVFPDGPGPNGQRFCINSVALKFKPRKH

Row | SMILES | reduction to DABS-Met, 30 min [1] | reduction to DABS-Met, 30 min [2] | reduction to DABS-Met, 30 min [3] | reduction to DABS-Met, 30 min [4] | reduction to DABS-Met, 30 min [5] | reduction to DABS-Met, 30 min [6] | reduction to DABS-Met, 30 min [7]
1 | CN(C)c1ccc(N=Nc2ccc(S(=O)(=O)N[C@@H](CC[S@@+](C)[O-])C(=O)O)cc2)cc1 [DABS-Met-R-(o)] | either DABS-Met-S-(o) or DABS-Met-R-(o), to measure the activity of MsrA and MsrB, respectively | either DABS-Met-S-(o) or DABS-Met-R-(o), to measure the activity of MsrA and MsrB, respectively | either DABS-Met-S-(o) or DABS-Met-R-(o), to measure the activity of MsrA and MsrB, respectively |  |  |  | 
2 | CN(C)c1ccc(N=Nc2ccc(S(=O)(=O)N[C@@H](CC[S@+](C)[O-])C(=O)O)cc2)cc1 [DABS-Met-S-(o)] |  |  |  | uses a synthetic substrate, either DABS-Met-S-(o) or DABS-Met-R-(o), to measure the activity of MsrA | uses a synthetic substrate, either DABS-Met-S-(o) or DABS-Met-R-(o), to measure the activity of MsrA | uses a synthetic substrate, either DABS-Met-S-(o) or DABS-Met-R-(o), to measure the activity of MsrA | uses a synthetic substrate, either DABS-Met-S-(o) or DABS-Met-R-(o), to measure the activity of MsrA
